Tests used:
[1] = target: T1, endogenous GR (Homo sapiens, UniProt P04150); test: Transrepression assay using endogenous GR in the A549 lung epithelial cell line (TNF, NRE luciferase); assay type: cell-based; details: compound G at 1, 10, 100 and 500 nM
T1 construct: This cell line contains functional endogenous GR; endogenous in cells; host or cells: A549
T1 sequence (P04150 1-777): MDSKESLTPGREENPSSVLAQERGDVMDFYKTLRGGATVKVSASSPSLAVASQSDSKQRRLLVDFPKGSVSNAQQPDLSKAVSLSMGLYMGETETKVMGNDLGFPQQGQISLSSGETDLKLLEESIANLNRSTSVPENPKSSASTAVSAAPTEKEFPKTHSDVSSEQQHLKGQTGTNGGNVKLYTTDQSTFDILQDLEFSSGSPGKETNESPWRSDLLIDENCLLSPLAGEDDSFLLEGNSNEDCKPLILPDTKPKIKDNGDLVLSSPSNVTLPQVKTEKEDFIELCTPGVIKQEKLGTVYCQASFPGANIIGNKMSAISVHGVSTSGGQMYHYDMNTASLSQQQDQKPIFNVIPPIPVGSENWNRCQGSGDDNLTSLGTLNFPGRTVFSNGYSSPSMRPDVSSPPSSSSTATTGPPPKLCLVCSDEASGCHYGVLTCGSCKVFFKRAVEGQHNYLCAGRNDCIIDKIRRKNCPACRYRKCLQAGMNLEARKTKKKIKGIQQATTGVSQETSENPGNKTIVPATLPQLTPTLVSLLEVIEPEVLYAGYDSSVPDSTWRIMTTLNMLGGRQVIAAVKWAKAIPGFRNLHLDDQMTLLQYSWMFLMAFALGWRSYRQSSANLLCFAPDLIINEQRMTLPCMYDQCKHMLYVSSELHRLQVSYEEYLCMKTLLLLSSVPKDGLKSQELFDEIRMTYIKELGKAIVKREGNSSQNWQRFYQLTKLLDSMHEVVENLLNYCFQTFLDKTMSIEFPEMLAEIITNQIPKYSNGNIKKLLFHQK
Text: (§1) The A549 cell line (ECACC:86012804) is derived from the human lung epithelial cells from a carcinoma. This cell line contains functional endogenous GR and is stimulated by Tumour Necrosis Factor (TNF) to produce IL-8.
In this assay TNF was used to stimulate NFkB activity in a cell line that expressed endogenous GR. The ability of NFkB to activate an NRE “driving” a luciferase reporter gene could then be repressed by GR in a ligand dependent manner and, therefore, used to measure transrepression.
COS7 cells were transfected with 3 μg NRE-Luc per 10 cm tissue culture dish. The cells were plated out in to 24 well plates after transfection and left for 18 hours to recover before the steroids of FIGS. 1 and 2 were added. Next TNF was added to the samples after 3 hours incubation with the steroids and after another 15 hours the cells were lysed and a luciferase assay was performed.

[2] = system: IL-8; test: Repression of endogenous IL-8 in A549s; assay type: cell-based, human; details: A549 cells; compound G at 100 nM, p=0.0076
Text: as §1
In this assay TNF was used to stimulate NFkB activity in a cell line that expressed endogenous GR. The ability of NFkB to induce IL-8 gene transcription could then be repressed by GR in a ligand dependent manner and, therefore, used to measure transrepression.
COS7 cells were transfected with 3 μg NRE-Luc per 10 cm tissue culture dish. The cells were plated out in to 24 well plates after transfection and left for 18 hours to recover before the steroids of FIGS. 1 and 2A were added. After incubation for 3 hours with the steroids, TNF was added to the samples and after another 15 hours an IL-8 assay (R&D systems) was performed on the cell supernatants according to the manufacturers instructions. Briefly, triplicates of 100 μl of a 1:2 dilution of cell supernatant and 100 μl of a known dilution series of IL-8 were added to the wells of a microtitre plate coated with a monoclonal IL-8 antibody, the samples were incubated with a polyclonal biotinylated IL-8 antibody for 1 hour at room temperature and washed. Streptavidin horse radish peroxidase solution was then added to all wells and incubated for 30 mins before being washed. Tetramethyl benzidine (TMB; a chromagen) was added to all the wells and incubated in the dark for 10 mins, the reaction was stopped by the addition of H2SO4 and the absorbance of each well was read on a spectrophotometer using 450 nm as the primary wavelength. Regression analysis was performed on the standard data and the unknowns were expressed as pg/ml of IL-8 in comparison to the standards.

[3] = target: T2, GFP tagged GR (Homo sapiens, UniProt P04150); test: Nuclear translocation using GFP tagged GR and fluorescent microscopy; assay type: cell-based; details: COS 7 cells, 100 nM, 3 hours
T2 construct: expressed in transfected cells; host or cells: COS 7
T2 sequence (P04150 1-777): T1 sequence (P04150 1-777)
Text: The un-liganded GR is present in the cytoplasm of cells in association with heat shock proteins (HSPs). The binding of an agonist ligand to the GR causes dissociation from the HSPs and translocation to the nucleus. A type I antagonist ligand can bind to the GR but cannot translocate to the nucleus. A type II antagonist ligand can bind to the GR, translocate to the nucleus and bind to DNA but cannot activate gene transcription. Therefore, the ability of a putative ligand to translocate the GR helps to determine its status as an agonist or antagonist. COS 7 cells were transfected with 5 μg of a green fluorescent protein (GFP) tagged GR expression vector. After transfection, these cells were split into 6 well plates with sterile microscope cover slips placed at the bottom of each well. The cells were allowed to recover for 18 hours and then the medium was removed, the cells were washed three times with sterile phosphate buffered saline (PBS) and new medium was added containing charcoal stripped FCS in place of normal FCS. The cells were incubated for 18 hours and then the steroids of FIGS. 1 and 2A were added to make a final concentration of 100 nM. The cells were incubated for a further 3 hours and then the medium was aspirated and the cells were fixed to the glass coverslips by adding ice cold methanol and incubating at −20° C. for 30 mins. The coverslips with the transfected cells fixed to them were mounted on slides and the cellular localisation of the GFP tagged GR was analysed by fluorescent microscopy using an Axioplan 2 microscope (Zeiss, Oberkochen, Germany) and KS300 v3.0 analysis software (Zeiss).

[4] = target: T3, glucocorticoid receptor (Homo sapiens, UniProt P04150); test: Transrepression assay using artificially expressed glucocorticoid receptor and P65 in the COS 7 cell line (NRE luciferase); assay type: cell-based; design: expressed in transfected cells; host or cells: COS 7 (African green monkey kidney, deficient in endogenous GR); details: 1, 10 and 100 nM
T3 sequence (P04150 1-777): T1 sequence (P04150 1-777)
Method: All transfections were performed using lipofectamine plus (Gibco BRL), according to the manufacturers' instructions, as previously described^1. Briefly, all cells were seeded at 5×10^5 per 10 cm tissue culture plate 18 hours before transfection, the next day the relevant plasmids were mixed with serum free medium and “Plus” reagent (Gibco BRL) and incubated for 15 mins, lipofectamine reagent was added and the mix was incubated for a further 15 mins, this mix was added to the cells on serum free medium in the 10 cm tissue culture plates and left for 3 hours, the cells were then trypsinised and divided into 24 well plates, the cells were left to recover overnight and were treated with steroid for 16 hours before harvest. All experiments were performed from one transfection in triplicate and on separate occasions with similar results.
The firefly luciferase gene catalyses the production of light from the substrate luciferin. When plasmid constructs containing this gene are transfected into cell lines the activity of the gene can be assessed by the intensity of the luminesence. The luciferase assay yields luminescence through an ATP-dependent oxidation of luciferin the amount of light produced can be measured by a luminometer and is a measure of gene activity (Davis, 1996). Light intensity was measured in a Luminometer (LB 9501, Berthold). The light intensity should be proportional to luciferase concentration in the range of 10^−16M (10 μg/L) to 10^−8M (1 mg/L). To measure the luminescence of the treated cells 150 μl of 1× reporter lysis buffer (RLB: 25 mM Tris phosphate pH7.8, 10 mM MgCl2, 15% Glycerol, 1% Triton, 1 mM EDTA) was added to the 24 well plates to lyse the cells and incubated at room temperature for 30 mins whilst being shaken. Then 100 μl of the room temperature cell extract were mixed with 100 μl of room temperature Luciferase Assay Reagent (LAR: 1 mM ATP, 0.3 mM D-Luciferin, 66% RLB). This reaction was mixed in a luminometer (LB 9501, Berthold) and the light produced was measured for a period of 5 seconds.
To perform this assay the GR and p65 were artificially expressed in a cell line lacking GR and deficient in endogenous P65. The ability of P65 to activate an NFkB response element (NRE) “driving” a luciferase reporter gene could then be repressed by GR in a ligand dependent manner and, therefore, used to measure transrepression.
COS7 cells were transfected with 1 μg pcDNA3-GR and 3 μg NRE-Luc and 200 ng p65 per 10 cm tissue culture dish. The cells were plated out in to 24 well plates after transfection and left for 18 hours to recover before the steroids of FIGS. 1 and 2A were added. After another 18 hour incubation the cells were lysed and a luciferase assay was performed.

[5] = system: zymosan induced neutrophil migration; test: Air pouch model of inflammation, zymosan induced neutrophil migration; assay type: in vivo, mice
Method: Male outbred Swiss albino mice (18-20 g body weight) were purchased from Bantin and Kingman (T.O. strain; Hull, Humberside) and maintained on a standard chow pellet diet with tap water ad libitum and a 12:00 h light/dark cycle. All animals were housed for 3 days prior to experimentation to allow body weight to reach 20-22 g. On the day of experiment mice ranged from 24-26 g.
Air-pouches were formed on the back of mice by air injection (2.5 ml s.c.) on day 0 and day 3 (Perretti and Flower, 1993).
Zymosan A was allowed to defrost at room temperature for 30 min prior to being added to sterile PBS at a concentration of 2 mg/ml forming a homogenous suspension.
(§2) At time 0, mice received either 0.5 ml of zymosan (1 mg) (group A, B, C) injected locally into the air-pouch. Group D and E were left untreated at this time-point. At 4 h post-zymosan the animals were placed in CO2. Air-pouches were then washed with 2 ml of PBS containing 3 mM EDTA, and livers were recovered and snap frozen for later analysis.
The number of migrated leukocytes (≧90% polymorphonuclear leukocytes, PMN) was determined in the lavage fluid from each air-pouch, by taking an aliquot (100 μl) of the lavage fluid and diluting 1:10 in Turk's solution (0.01% crystal violet in 3% acetic acid). The samples were then vortexed and 10 μl of the stained cell solution were placed in a Neubauer haematocymometer and neutrophils numbers counted using a light microscope (Olympus B061).
Neutrophil numbers were compared between groups using ANOVA plus the Bonferroni test. TAT levels were compared using a t-test.

[6] = system: tyrosine amino transferase (TAT); test: Quantitation of tyrosine amino transferase (TAT) in the livers of air pouch mice; assay type: in vivo; details: 3 μg i.p., FIG. 22
Method: as §2
Quantitation of Tyrosine Amino Transferase (TAT) Protein in the Livers: In this method a colourimetric approach is used to quantitate TAT activity. The TAT enzyme catalyses the following reaction: L-tyrosine+2-oxoglutarate⇄4-hydroxyphenylpyruvate (pHPP)+L-glutamate
This reaction also requires pyridoxal phosphate (PLP) as a co-factor. Strong alkali conditions can then be used to convert pHPP to p-hydroxybenzaldehyde (pHBA) and oxalate. The amount of pHBA can then be assessed by measuring its absorbance at 331 nm (extinction coefficient 19,900 M^−1cm^−1) this figure is then assumed to be directly proportional to TAT activity. Livers were homogenized and the cells were stored on ice. […]
For each reaction a control reaction was set up without the ketoglutarate. […] The samples were incubated at room temperature for a further 30 mins and then the absorbance of each sample was assessed at 331 nm on a spectrophotometer (Ultrospec III, Pharmacia).

repression of TNF activation of A549 cells (NRE reporter gene) [1]	nuclear translocation of the GFP tagged glucocorticoid receptor [3]	liver TAT level compared with vehicle control groups [6]	SMILES	repression of IL-8 production after TNF activation [2]	repression of P65 stimulation of an NFkB response element compared with dexamethasone [4]	Neutrophils (10^6 per mouse) ([5]; 3 μg i.p. at -1 h, Zymosan 1 mg into air-pouch, 4 h time-point, mean ± S.E. of 8 mice)	reduction of neutrophil accumulation ([5]; 3 μg i.p., zymosan air pouch, 4 h) [%]
exhibited transrepression	caused nuclear localisation		CCCNC(=O)OCC(=O)C1(O)C(C)CC2C3CCC4=CC(=O)C=CC4(C)C3(F)C(O)CC21C (stereo not shown) [Compound H]	exhibited transrepression	less potent than dexamethasone but produced the same maximal response at 100 nM		
		further elevation of TAT	C[C@@H]1C[C@H]2[C@@H]3CCC4=CC(=O)C=C[C@]4(C)[C@@]3(F)[C@@H](O)C[C@]2(C)[C@@]1(O)C(=O)CO [Dexamethasone, reference compound]			6.23 ± 0.44 * 10^6 per mouse	~30

Source: patent US7763596B2, “Selective glucocorticoid receptor agonists” (The University of Manchester, priority 2000, dated 2010)
